Source: patent publication EP4311545A1, “COMPOUNDS USEFUL FOR THE POST-STING TREATMENT FROM A CNIDARIAN ORGANISM” (Isdin, S. A., priority 2022, dated 2024)

System: P. noctiluca
Test: Tentacle Skin Blood Agarose Assay (TSBAA): venom load after natural stimulation of nematocyst discharge
Assay type: cell-based
Conditions: for discharge of nematocysts: summary of the results of Examples 1 and 2
Description: Example 2: Natural stimulation of nematocyst discharge. Tentacle Skin Blood Agarose Assay (TSBAA).
Briefly, an agarose gel preparation incorporating sheep red blood cells (SRBCs) (Thermo Fisher Scientific) was used covered by a thin tissue of pig intestine to simulate the effect of the human skin barrier.
A solution of 4% low melting point agarose (INVITROGEN ™ LMP Agarose) in phosphate buffered saline (PBS) (SIGMA) was prepared and cooled to room temperature for a few minutes. The SRBCs were centrifuged and resuspended in PBS until a final concentration of 2% was obtained. Equal volumes of both preparations were mixed and poured onto a glass surface with a mold (18x7.5 cm) and allowed to cool to room temperature. Once the agarose with SRBCs was set, rectangles were cut and placed on slides and kept at 4 °C in a humidification chamber (maximum 72 hours until use).
Pig small intestine tissue was washed in a 50 mM saline solution and then cut in rectangular sections. […] The next day, the sections were stretched on a glass surface and allowed to dry for a few minutes in the open air. The pretreated sections of the pig small intestine were placed on the SRBC agarose rectangles
Cutting tentacles of the same size is a complicated process due to the contraction and expansion of the tentacles after their manipulation. In order to control the sting area, we design plastic molds obtained through a 3D printer.
Tentacle pieces of approximately 3 cm long were incubated on reductor or inhibitory solutions (Method 3) for 5 minutes. Consecutively, the agarose rectangles were stung by a sting diameter of 57,35 mm^2 for 1 minute. A weight of 0,66 g was applied to ensure the contact between the tentacle and the skin. After the sting process, the plastic molds and the intestine sections were removed and the SRBC's agarose rectangles were stored in the humidification chamber at room temperature. After a period of 22 hours, images of the hemolytic areas were obtained with a camera. Hemolytic areas were calculated using the Fiji version of ImageJ software (J. Schindelin et al., Fiji: an open-source platform for biological-image analysis. Nature methods, 2012, vol. 9, pp. 676-682). Table 2. Inhibitory efficacy on the venom load to P. noctiluca.

| Compound | discharge of nematocysts | Venom load - Hemolytic area (%) (tentacles incubated 5 minutes in solution, sting 1 minute on SRBC agarose covered with pig intestine, read after 22 hours) | % Inhibitory ({}) [%] |
| --- | --- | --- | --- |
| CC(C)(C)C1CCC(O)CC1 (stereo not shown) [4-tert-butyl cyclohexanol] | significantly reduces |  |  |
| CC(O)CCO (stereo not shown) [100% Butylene glycol, Butylene glycol] |  | 26.54 ± 19.66 | 56.33 |
| O=C(CO)c1ccccc1 [HAP, hydroxy acetophenone] | significantly reduces |  |  |
